According to patent US20260217701A1, “SELECTIVE BET INHIBITORS AND USES THEREOF” (Tay Therapeutics Limited, priority 2022, published 2026):

Test: Dog PK study #4 (Compound A PO daily 14 days, 1/3/10 mg/kg; toxicokinetics, platelet counts)
Assay type: in vivo, beagle dogs
Conditions: for Mean Platelet Count: Day 15 following 14 days of administration; for concentration at 0.5 h / concentration at 1 h / concentration at 2 h / concentration at 4 h / concentration at 8 h / concentration at 24 h: beagle, dog, plasma, oral, after daily administration for 14 days
Experimental: The different doses of compound A were orally administered to animals (n=2/group, one male and one female animal) daily for 14 days.
Blood samples were collected at 0.5, 1, 2, 4, 8, and 24 hours after administration of Compound A on Day 14, and EDTA-K2 was used as an anticoagulant. Within 30 minutes of collection, the samples were centrifuged at approximately 2000×g for 10 minutes at 4° C. to obtain blood plasma. The samples were immediately divided into aliquots, transferred to cryogenic vials, and stored in a freezer at −75+15° C. prior to analysis.
The concentration of Compound A in the blood plasma was determined through liquid chromatography-mass spectrometry (LC-MS). The experiments were conducted on a Shimadzu UPLC and AB API 6500+LC/MS/MS with a Water […] UPLC HSS T3 1.8 μm (50×2.1 mm) column. A gradient of 0.1% formic acid in water/0.1% formic acid in acetonitrile was used as the mobile phase. The sample injection volume was 1 μL. The flow rate was 0.6 mL/min.
The desired serial concentrations of working solutions were achieved by diluting 30 μL of sample (control standard, QC standard, test samples) with 30 μL of a 50% acetonitrile in water solution (for double blanks) or 30 μL of the IS mixture (Compound B 80 ng/ml in 50% acetonitrile). 240 μL of 100% acetonitrile was then added and samples were vortexed for 5 min and centrifuged at 3200×g at 4° C. for 10 min. 100 μL of the supernatant was transferred and then diluted with 50% acetonitrile. Samples were then vortexed for about 5 min before injection into the LC/MS/MS system for quantitative analysis.

[1] = both sexes, 1 mg/kg, Pooled Mean
[2] = both sexes, 3 mg/kg, Pooled Mean
[3] = both sexes, 10 mg/kg, Pooled Mean

Cn1cc(-c2ccccc2)c(-c2cn(C)c(=O)c3[nH]c(-c4cnn(C(F)(F)F)c4)cc23)cc1=O [Compound A, 6-methyl-4-(1-methyl-2-oxo-5-phenyl-1,2-dihydropyridin-4-yl)-2-(1-(trifluoromethyl)-1H-pyrazol-4-yl)-1,6-dihydro-7H-pyrrolo[2,3-c]pyridin-7-one]
exposure difference between male and female animals (Day 14): no exposure differences
plasma concentration relative to BD2 BRD4 and BD1 BRD4 free EC50 (Day 14, 1, 3 and 10 mg/kg, all time points over 24 hours): remained well above the BD2 BRD4 EC50
time of peak (or plateau) plasma concentration (Day 14, all animals): approximately 2 hours
platelet counts relative to vehicle (Day 15, after 14 days of 1, 3 or 10 mg/kg): no appreciable difference in platelet counts
Mean Platelet Count (1 mg/kg): 260750 µL⁻¹
Mean Platelet Count (3 mg/kg): 241000 µL⁻¹
Mean Platelet Count (10 mg/kg): 293000 µL⁻¹
concentration at 0.5 h (1 mg/kg, Female): 27.8 ng/mL
concentration at 1 h (1 mg/kg, Female): 57.9 ng/mL
concentration at 2 h (1 mg/kg, Female): 70.1 ng/mL
concentration at 4 h (1 mg/kg, Female): 55.9 ng/mL
concentration at 8 h (1 mg/kg, Female): 25.7 ng/mL
concentration at 24 h (1 mg/kg, Female): 10.3 ng/mL
concentration at 0.5 h (1 mg/kg, Male): 31.6 ng/mL
concentration at 1 h (1 mg/kg, Male): 56.7 ng/mL
concentration at 2 h (1 mg/kg, Male): 60.8 ng/mL
concentration at 4 h (1 mg/kg, Male): 44.8 ng/mL
concentration at 8 h (1 mg/kg, Male): 24.5 ng/mL
concentration at 24 h (1 mg/kg, Male): 25.1 ng/mL
concentration at 0.5 h (3 mg/kg, Female): 152 ng/mL
concentration at 1 h (3 mg/kg, Female): 324 ng/mL
concentration at 2 h (3 mg/kg, Female): 320 ng/mL
concentration at 4 h (3 mg/kg, Female): 230 ng/mL
concentration at 8 h (3 mg/kg, Female): 87.5 ng/mL
concentration at 24 h (3 mg/kg, Female): 14.2 ng/mL
concentration at 0.5 h (3 mg/kg, Male): 98.3 ng/mL
concentration at 1 h (3 mg/kg, Male): 201 ng/mL
concentration at 2 h (3 mg/kg, Male): 265 ng/mL
concentration at 4 h (3 mg/kg, Male): 245 ng/mL
concentration at 8 h (3 mg/kg, Male): 165 ng/mL
concentration at 24 h (3 mg/kg, Male): 33 ng/mL
concentration at 0.5 h (10 mg/kg, Female): 1130 ng/mL
concentration at 1 h (10 mg/kg, Female): 1630 ng/mL
concentration at 2 h (10 mg/kg, Female): 1680 ng/mL
concentration at 4 h (10 mg/kg, Female): 1070 ng/mL
concentration at 8 h (10 mg/kg, Female): 342 ng/mL
concentration at 24 h (10 mg/kg, Female): 61.6 ng/mL
concentration at 0.5 h (10 mg/kg, Male): 1010 ng/mL
concentration at 1 h (10 mg/kg, Male): 1450 ng/mL
concentration at 2 h (10 mg/kg, Male): 1490 ng/mL
concentration at 4 h (10 mg/kg, Male): 1350 ng/mL
concentration at 8 h (10 mg/kg, Male): 646 ng/mL
concentration at 24 h (10 mg/kg, Male): 145 ng/mL
concentration at 0.5 h [1]: 29.7 ng/mL
concentration at 1 h [1]: 57.3 ng/mL
concentration at 2 h [1]: 65.5 ng/mL
concentration at 4 h [1]: 50.4 ng/mL
concentration at 8 h [1]: 25.1 ng/mL
concentration at 24 h [1]: 17.7 ng/mL
concentration at 0.5 h [2]: 125 ng/mL
concentration at 1 h [2]: 262 ng/mL
concentration at 2 h [2]: 292 ng/mL
concentration at 4 h [2]: 238 ng/mL
concentration at 8 h [2]: 126 ng/mL
concentration at 24 h [2]: 23.6 ng/mL
concentration at 0.5 h [3]: 1070 ng/mL
concentration at 1 h [3]: 1540 ng/mL
concentration at 2 h [3]: 1580 ng/mL
concentration at 4 h [3]: 1210 ng/mL
concentration at 8 h [3]: 494 ng/mL
concentration at 24 h [3]: 103 ng/mL
